Measured values taken from the NIST ThermoML archive (doi:10.1016/j.jct.2005.05.015).

Details: Liquid, Twin ebulliometer

CCCCC [pentane]
Details	vapor or sublimation pressure [kPa]
309.32 K	101.73
313.85 K	118.39
320.2 K	145.3
325.22 K	169.71
330.84 K	200.67
335.22 K	227.66
339.51 K	256.78
343.32 K	284.81
346.78 K	312.35
349.92 K	338.98
353.48 K	371.25
356.79 K	403.22
360.01 K	436.34
363.24 K	471.57
366.37 K	507.7
369.92 K	551.11
377.19 K	648.59
384.19 K	754.18
392.52 K	895.85
397.8 K	995.29
402.59 K	1092.4
406.87 K	1185.1
412.57 K	1317.5
416.13 K	1405.5
417.87 K	1450
420.09 K	1508.6
423.75 K	1608.9
424.62 K	1633.2
427.09 K	1704.4
430.44 K	1804.8
430.68 K	1812
433.61 K	1903.7
437.57 K	2033.2
440.81 K	2143.7
443.59 K	2242.6
446.65 K	2355.2
449.18 K	2451.9
451.9 K	2559.3
451.99 K	2562.8
454.33 K	2658.6
455.99 K	2727.7
